Structures can show the parent of a compound that is named as a salt.
How the values were obtained:
[1] = biological target: neuraminidase from the H1N9 strain of influenza (Influenza A virus, UniProt P03472); test: biochemical; settings: neuraminidase enzyme inhibition data (IC50 values) Flu A
Flu B neuraminidase = Flu B neuraminidase (Influenza B virus, UniProt P03474); test: biochemical; settings: neuraminidase enzyme inhibition data (IC50 values) Flu B
Flu B neuraminidase, sequence (P03474 whole entry): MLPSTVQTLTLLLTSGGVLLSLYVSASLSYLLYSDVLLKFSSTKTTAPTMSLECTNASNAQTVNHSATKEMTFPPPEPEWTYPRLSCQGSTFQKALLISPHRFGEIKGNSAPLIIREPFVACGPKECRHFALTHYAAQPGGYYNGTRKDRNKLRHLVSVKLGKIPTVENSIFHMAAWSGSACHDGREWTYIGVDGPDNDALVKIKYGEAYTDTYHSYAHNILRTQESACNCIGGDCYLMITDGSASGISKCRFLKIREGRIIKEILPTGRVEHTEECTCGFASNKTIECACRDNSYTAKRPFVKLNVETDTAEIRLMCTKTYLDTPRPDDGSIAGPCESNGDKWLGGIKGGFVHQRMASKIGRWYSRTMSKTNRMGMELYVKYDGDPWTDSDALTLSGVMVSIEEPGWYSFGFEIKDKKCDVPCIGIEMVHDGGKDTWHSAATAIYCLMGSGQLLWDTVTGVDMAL

neuraminidase from the H1N9 strain of influenza, sequence (P03472 83-470 limits assumed): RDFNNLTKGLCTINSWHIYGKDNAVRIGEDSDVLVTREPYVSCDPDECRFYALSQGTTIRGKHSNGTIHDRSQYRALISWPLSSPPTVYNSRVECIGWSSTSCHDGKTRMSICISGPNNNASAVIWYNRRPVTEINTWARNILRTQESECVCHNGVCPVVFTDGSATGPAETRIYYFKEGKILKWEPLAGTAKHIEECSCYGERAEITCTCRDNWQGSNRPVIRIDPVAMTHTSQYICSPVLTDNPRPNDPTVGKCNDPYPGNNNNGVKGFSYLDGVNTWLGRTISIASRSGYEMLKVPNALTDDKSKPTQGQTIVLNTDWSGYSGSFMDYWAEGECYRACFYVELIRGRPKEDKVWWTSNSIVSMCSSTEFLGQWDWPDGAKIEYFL

Compound | IC50 [1] [nM] | IC50 (Flu B neuraminidase) [nM]
CCC(CC)C(NC(C)=O)C1CC(C(=O)O)CC1N (single isomer, unassigned) [Compound 86, (±) t-3-[(1′-Acetylamino-2′-ethyl)butyl]-c-4-aminocyclopentan-r-1-carboxylic Acid] | 1000 to 100000 | 1000 to 100000
CCC(CC)C(NC(C)=O)C1CC(C(=O)O)CC1NC(=N)N (single isomer, unassigned) [Compound 211, (±)-t-3-(1′-Acetylamino-2′-ethyl)butyl-c-4-[(amino-imino)methyl]-aminocyclopentan-r-1-carboxylic Acid] | < 1000 | 
CCC(C)C(NC(C)=O)C1C(N)CC(C(=O)O)C1O (single isomer, unassigned) [Compound 166, (±)-t-3-(1′-Acetylamino-2′-methyl)butyl-c-4-amino-t-2-hydroxycyclopentan-r-1-carboxylic Acid] | < 1000 | 1000 to 100000
CCCC(CCC)C(NC(C)=O)[C@@H]1C[C@@H](C(=O)O)C[C@H]1NC(=N)N (stereo partly drawn) [Compound 210, (1R,3R,4R,1′S)-(−)-3-(1′-Acetylamino-2′-propyl)pentyl-4-[(amino-imino)methyl]aminocyclopentan-1-carboxylic Acid] | < 1000 | < 1000
CCC(CC)C(NC(C)=O)[C@@H]1[C@H](O)[C@@H](C(=O)O)C[C@H]1NC(=N)N (stereo partly drawn) [Compound 178, (1S,2S,3R,4R,1′S)-(−)-3-(1′-Acetylamino-2′-ethyl)butyl-4-[(aminoimino)methyl]amino-2-hydroxycyclopentan-1-carboxylic Acid] | < 1000 | 
CCC(CC)C(NC(C)=O)C1C(NC(=N)N)CC(C(=O)O)C1O (single isomer, unassigned) [Compound 179, (±)-t-3-(1′-Acetylamino-2′-ethyl)butyl-c-4-[(amino-imino)methyl]amino-t-2-hydroxycyclopentan-r-1-carboxylic Acid] | < 1000 | 
CCC(CC)C(NC(C)=O)[C@@H]1[C@H](O)[C@@H](C(=O)O)C[C@H]1N (stereo partly drawn) [Compound 160, (1S,2S,3R,4R,1′S)-(−)-3-(1′-Acetylamino-2′-ethyl)butyl-4-amino-2-hydroxycyclopentan-1-carboxylic Acid] | < 1000 | < 1000
CCCCC(NC(C)=O)C1C(NC(=N)N)CC(C(=O)O)C1O (single isomer, unassigned) [Compound 181] | < 1000 | < 1000
CCC(CC)C(NC(C)=O)[C@@H]1C[C@@H](C(=O)O)C[C@H]1NC(=N)N (stereo partly drawn) [Compound 209, (1R,3R,4R,1′S)-(−)-3-(1′-Acetylamino-2′-ethyl)butyl-4-(aminoimino)methyl-aminocyclopentan-1-carboxylic Acid] | < 1000 | 
CCC(CC)C(NC(C)=O)[C@@H]1C=C(C(=O)O)C[C@H]1NC(=N)N (stereo partly drawn) [Compound 219, (3R,4R,1′S)-(−)-3-(1′-Acetylamino-2′-ethyl)butyl-4-[(amino-imino)methyl]amino-cyclopent-1-en-1-carboxylic Acid Hydrochloride] | < 1000 | < 1000
CCC(CC)C(NC(C)=O)C1C(N)CC(C(=O)O)C1O (single isomer, unassigned) [Compound 162, (±)-t-3-(1′-Acetylamino-2′-ethyl)butyl-c-4-amino-t-2-hydroxycyclopentan-r-1-carboxylic Acid] | < 1000 | < 1000
CCC(CC)C(NC(C)=O)[C@@H]1C[C@@H](C(=O)O)C[C@H]1NC(=N)NC (stereo partly drawn) [Compound 212, (1R,3R,4R,1′S)-(−)-3-(1′-Acetylamino-2′-ethyl)butyl-4-[(N-methylamino-imino)methyl]aminoclopentan-1-carboxylic Acid] | < 1000 | < 1000
CCCC(CCC)C(NC(C)=O)C1C(N)CC(C(=O)O)C1O (single isomer, unassigned) [Compound 163, (±)-t-3-(1′-Acetylamino-2′-propyl)pentyl-c-4-amino-t-2-hydroxycyclopentan-r-1-carboxylic Acid] | < 1000 | < 1000
CCC(CC)C(NC(C)=O)[C@@H]1C[C@@H](C(=O)O)C[C@H]1N (stereo partly drawn) [Compound 199, (1R,3R,4R,1′S)-(−)-3-(1′-Acetylamino-2′-ethyl)butyl-4-aminocyclopentan-1-carboxylic Acid] | < 1000 | < 1000
CCC(CC)CC(NC(C)=O)C1C(NC(=N)N)CC(C(=O)O)C1O (single isomer, unassigned) [Compound 180, (±)-t-3-(1′-Acetylamino-3′-ethyl)pentyl-c-4-[(amino-imino)methyl]amino-t-2-hydroxycyclopentan-r-1-carboxylic Acid] | < 1000 | < 1000
CCC(CC)C(NC(C)=O)[C@@H]1[C@H](O)[C@@H](C(=O)O)C[C@H]1NC(=N)NC (stereo partly drawn) [Compound 182, (1S,2S,3R,4R,1′S)-(−)-3-(1′-Acetylamino-2′-ethyl)butyl-4-[(N-methylamino-imino)methyl]amino-2-hydroxycyclopentan-1-carboxylic Acid] | < 1000 | < 1000
CCCC(CCC)C(NC(C)=O)[C@@H]1[C@H](O)[C@@H](C(=O)O)C[C@H]1NC(=N)N (stereo partly drawn) [Compound 183, (1S,2S,3R,4R,1′S)-(−)-3-(1′-Acetylamino-2′-propyl)pentyl-4-[(amino-imino)methyl]amino-2-hydroxycyclopentan-1-carboxylic Acid] | < 1000 | < 1000
CCCCC(NC(C)=O)C1C(N)CC(C(=O)O)C1O (single isomer, unassigned) [Compound 165] | 1000 to 100000 | 1000 to 100000
CCC(CC)C(NC(C)=O)C1CC(C(=O)O)CC1N (single isomer, unassigned) [Compound 200, (±)-t-3-(1′-Acetylamino-2′-ethyl)butyl-c-4-aminocyclopentan-1-carboxylic Acid] | < 1000 | < 1000
CCC(CC)C(NC(C)=O)C1CC(C(=O)O)CC1O (single isomer, unassigned) [Compound 65, (±) t-3-(1′-Acetylamino-2′-ethyl)butyl-t-4-hydroxycyclopentan-r-1-carboxylic Acid] | 1000 to 100000 | 1000 to 100000

— patent US6562861B1 (priority 1997, dated 2003)
